Reference: ChEMBL document CHEMBL1123773, “The role of solvent-accessible surface area in determining partition coefficients” (J Med Chem, 1987)

Tests used:
[1] = Partition coefficient (logP) (hexane); settings: octanol/water
[2] = Partition coefficient (logP) (ether); settings: octanol/water
[3] = Partition coefficient (logP); settings: octanol/water
[4] = Partition coefficient (logP) (chloroform); settings: octanol/water
[5] = Diffusion constant for permeability of stratum corneum; format: ADME
[6] = Partition coefficient (logP) (carbon tetrachloride); settings: octanol/water
[7] = Partition coefficient (logP) (benzene); settings: octanol/water

| SMILES | logP [1] | logP [2] | logP [3] | logP [4] | Log k [5] | logP [6] | logP [7] |
| --- | --- | --- | --- | --- | --- | --- | --- |
| COc1cccc(C=O)c1O | 0.53 | 1.35 | 1.37 | 2.3 |  |  |  |
| CCC(N)CC | -0.48 | -0.07 | 0.57 | 0.81 |  |  |  |
| O=C(O)c1cccc([N+](=O)[O-])c1 | -1.22 | 1.97 |  | 0.48 |  |  |  |
| CCCCCCCO [1-HEPTANOL] | 1.01 | 2.4 | 2.41 | 2.41 |  |  |  |
| CCCCCO [1-PENTANOL] | -0.4 | 1.2 |  | 1.05 |  |  |  |
| Nc1ccccc1[N+](=O)[O-] [2-NITROANILINE] | 0.25 | 1.95 | 1.85 | 2.13 |  |  |  |
| O=[N+]([O-])c1cccc(O)c1 [3-NITRO-PHENOL] | -1.4 | 2.18 |  | 0.6 |  |  |  |
| Nc1cccc([N+](=O)[O-])c1 [3-NITROANILINE] | -0.62 | 1.71 |  | 1.61 |  |  |  |
| O=Cc1ccc(O)cc1 [4-HYDROXYBENZALDEHYDE] | -0.95 | 1.1 |  | -0.12 |  |  |  |
| COC(C)=O [ACETIC ACID METHYL ESTER] | -0.26 | 0.43 |  | 1.16 |  |  |  |
| CC(C)=O [ACETONE] | -0.91 | -0.21 |  | 0.24 |  |  |  |
| C[C@]12CCC(=O)C=C1CC[C@@H]1[C@@H]2[C@@H](O)C[C@]2(C=O)[C@@H](C(=O)CO)CC[C@@H]12 [ALDOSTERONE] |  |  |  |  | 0.48 |  |  |
| Nc1ccccc1 [ANILINE] | -0.3 | 0.85 |  | 1.42 |  |  |  |
| Nc1ccccc1C(=O)O [ANTHRANILIC ACID] | -2.12 | 1.43 | 1.21 | -1.15 |  |  |  |
| Oc1ccc2ccccc2c1 [BETANAPHTHOL] | 0.3 | 1.77 |  | 1.74 |  | 0.99 | 1.74 |
| CCCCN [BUTYLAMINE] | -0.62 | 0.11 | 0.74 | 0.56 |  |  |  |
| O=C(O)CCl [CHLOROACETIC ACID] | -3.14 | 0.37 | 0.22 | -1.92 |  |  |  |
| C[C@]12C[C@H](O)[C@H]3[C@@H](CCC4=CC(=O)CC[C@@]43C)[C@@H]1CC[C@@H]2C(=O)CO [CORTICOSTERONE] |  |  |  |  | 1.78 |  |  |
| C[C@]12CCC(=O)C=C1CC[C@@H]1[C@@H]2C(=O)C[C@@]2(C)[C@H]1CC[C@]2(O)C(=O)CO [CORTISONE] |  |  |  |  | 1 |  |  |
| C[C@]12CCC(=O)C=C1CC[C@@H]1[C@@H]2CC[C@@]2(C)[C@H]1CC[C@]2(O)C(=O)CO [CORTODOXONE] |  |  |  |  | 1.88 |  |  |
| C[C@]12CC[C@H]3[C@@H](CCC4=CC(=O)CC[C@@]43C)[C@@H]1CC[C@@H]2C(=O)CO [DESOXYCORTICOSTERONE] |  |  |  |  | 2.65 |  |  |
| CCOC(C)=O [ETHYL ACETATE] | 0.29 | 0.93 |  | 1.8 |  |  |  |
| CCN [ETHYLAMINE] | -1.77 | -1.18 | -0.3 | -0.35 |  |  |  |
| COc1ccccc1O [GUAIACOL] | 0.36 | 1.44 | 1.32 | 1.7 |  |  |  |

| SMILES | logP [1] | logP [2] | logP [3] | logP [4] | Log k [5] | logP [6] | logP [7] |
| --- | --- | --- | --- | --- | --- | --- | --- |
| CCCCCC(=O)O [HEXANOATE] | -0.46 | 1.95 |  | 1.15 |  |  |  |
| Oc1ccc(O)cc1 [HYDROQUINONE] | 0.05 | 0.38 |  | 0.23 |  | 0.04 | 0.15 |
| CC(=O)[C@@]1(O)CC[C@H]2[C@@H]3CC[C@@H]4C[C@H](O)CC[C@]4(C)[C@H]3CC[C@@]21C [HYDROXYPREGNENOLONE] |  |  |  |  | 2.78 |  |  |
| CC(=O)[C@@]1(O)CC[C@H]2[C@@H]3CCC4=CC(=O)CC[C@]4(C)[C@H]3CC[C@@]21C [HYDROXYPROGESTERONE] |  |  |  |  | 2.78 |  |  |
| CC(C)CO [ISOBUTANOL] | -0.6 | 0.53 | 0.65 | 0.34 |  |  |  |
| COc1ccc(C=O)cc1O [ISOVANILLIN] | -0.85 | 0.82 | 0.97 | 1.18 |  |  |  |
| COc1ccc(O)cc1 [MEQUINOL] | -0.76 | 1.47 |  | 0.23 |  |  |  |
| CO [METHYL ALCOHOL] | -2.8 | -1.15 | -0.77 | -1.26 |  |  |  |
| O=[N+]([O-])c1ccccc1O [NITROPHENOLATE] | 1.4 | 2.18 |  | 2.35 |  |  |  |
| O=[N+]([O-])c1ccc(O)cc1 [P-NITROPHENOL] | -2 | 2.01 |  | 0.2 |  |  |  |
| O=C(O)c1ccc(O)cc1 [PARABEN] | -1.82 | 1.42 |  | -0.5 |  |  |  |
| CCCC(C)C1(CC)C(=O)NC(=O)NC1=O (centres undefined) [PENTOBARBITAL] | -1.3 | 1.28 | 2.1 | 1.38 |  |  |  |
| CCC1(c2ccccc2)C(=O)NC(=O)NC1=O [PHENOBARBITAL] | -2.22 | 1.51 | 1.71 | 0.62 |  |  |  |
| Oc1ccccc1 [PHENOL] | -0.7 | 1.64 |  | 0.37 |  | -0.36 | 0.36 |
| CC(=O)[C@H]1CC[C@H]2[C@@H]3CC=C4C[C@@H](O)CC[C@]4(C)[C@H]3CC[C@]12C [PREGNENOLONE] |  |  |  |  | 3.17 |  |  |
| CC(=O)[C@H]1CC[C@H]2[C@@H]3CCC4=CC(=O)CC[C@]4(C)[C@H]3CC[C@]12C [PROGESTERONE] |  |  |  |  | 3.18 |  |  |
| CCC(=O)O [PROPIONIC ACID] | -2.14 | 0.27 |  | -0.96 |  |  |  |
| CCCN [PROPYLAMINE] |  | -0.54 | 0.28 | 0.26 |  |  |  |
| O=C(O)c1ccccc1O [SALICYLIC ACID] | -0.57 | 2.37 |  | 0.58 |  | 0 | 0.5 |
| CC(C)(C)N [TERT-BUTYLAMINE] | -0.48 | -0.26 | 0.27 | 0.54 |  |  |  |
| C[C@]12CC[C@H]3[C@@H](CCC4=CC(=O)CC[C@@]43C)[C@@H]1CC[C@@H]2O [TESTOSTERONE] |  |  |  |  | 2.6 |  |  |
| O=C(O)C(Cl)(Cl)Cl [TRICHLOROACETIC ACID] | -2.63 | 1.21 | 1.33 | -0.69 |  |  |  |
| CCCCC(=O)O [VALERIC ACID] | -1 | 1 | 1.39 | 0.28 |  |  |  |
| COc1cc(C=O)ccc1O [VANILLIN] | -0.72 | 0.96 |  | 1.42 |  |  |  |
